This passage reports GI50 results from patent US20240059698A1 (Accutar Biotechnology Inc., priority 2022, published 2024).

Where only a bound is given, the exact number is not on record here.

Assay type in all cases: cell-based
The subject of one assay is HCC827 cells. As to the kind of experiment: Cell growth inhibition (CellTiter-Glo), HCC827. The following applies: Homo sapiens, 72 h, 3 days. The gist of the method: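 HCC827 cells in RPMI and A431 cells in DMEM (both 10% FBS) were seeded at 5000 cells/well and left overnight. They were then exposed to compound dilutions for 3 days at 37° C. Viability was read by CellTiter-Glo luminescence.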
A general note: Cellular ATP, detected with luciferase, serves as a proxy for viable cell number.

The subject of assay [1] is HCC827-SVD cells (human EGFR exon 20 insertion mutant D770_N771insSVD). Kind of assay: Cell growth inhibition (CellTiter-Glo), HCC827-SVD. Conditions: 72 h, 3 days. The gist of the method: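 HCC827 cells with endogenous EGFR knocked out and lentivirally expressing the insertion mutant (single clone) were seeded at 5000 cells/well in RPMI with 10% FBS. After overnight, compounds added; 3 days at 37 °C, then CellTiter-Glo luminescence.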

Assay [2] concerns HCC827-YVMA cells (human ERBB2 exon20 insertion mutant A775_G776ins YVMA). As to the kind of experiment: Cell growth inhibition (CellTiter-Glo), HCC827-YVMA. The following applies: 72 h, HCC827-YVMA cells, 3 days, CellTiter-Glo, read-out: Cell growth inhibition, GI50 (nM) HCC827-YVMA. Summed up: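 HCC827 cells transduced with lentiviral codon-optimized mutant (ERBB2 A775_G776insYVMA or EGFR V769_D770insASV), endogenous EGFR knocked out by CRISPR, single clone selected. Cells seeded overnight in RPMI/10% FBS, then exposed to serially diluted compounds at 37 °C for 3 days; viability read by CellTiter-Glo luminescence.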

In the next assay the test system is A431 cells. Kind of assay: Cell growth inhibition (CellTiter-Glo), A431. The following applies: Homo sapiens, A-431, 72 h, 3 days. The method, then:
2. Cell Growth Inhibition for HCC827, HCC827-SVD, HCC827-ASV, HCC827-YVMA, and A431.
HCC827(ATCC), HCC827-SVD, HCC827-ASV, and HCC827-YVMA cells were seeded in 96-well plates at 5000 cells/well in 90 μL of RPMI growth medium containing 10% FBS and 1% Penicillin Streptomycin. A431 (ATCC) cells were seeded in 96-well plates at 5000 cells/well in 90 μL of DMEM growth medium containing 10% FBS and 1% Penicillin Streptomycin. Cells were incubated at 37° C. overnight and then administered with 10 μL 10× test compounds prepared in the growth medium at various concentrations. After administration of the compounds, cells were incubated at 37° C. for 3 days. Before the CellTiter-Glo assay, the plates were equilibrated at room temperature for approximately 30 minutes. 100 ul of CellTiter-Glo reagent (Promega) was added to each well. The plates were then incubated at room temperature for 10 minutes and luminescence was recorded by the EnSight® multimode plate reader (PerkinElmer). Table 7 listed selected compounds in cellular growth assay.

The GI50 is the concentration that inhibits growth by half. `C=CC(=O)N1CCC(c2c[nH]c3ncnc(Nc4ccc(Oc5ccnc(N6C[C@H](OC)[C@H](OC)C6)c5)cc4F)c23)CC1` [Compound 139, 1-(4-(4-((4-((2-((3R,4S)-3,4-dimethoxypyrrolidin-1-yl)pyridin-4-yl)oxy)-2-fluorophenyl)amino)-7H-pyrrolo[2,3-d]pyrimidin-5-yl)piperidin-1-yl)prop-2-en-1-one]: the 50% growth inhibitory concentration (GI50) was more than 1000 nM in the assay with HCC827 cells, 50 to 200 nM in assay [1], more than 1000 nM in assay [2] and more than 1000 nM with A431 cells.
Take `C=CC(=O)N1CCC(c2c[nH]c3ncnc(Nc4ccc(Oc5ccnc(N6CCC(C(F)(F)F)C6)c5)cc4F)c23)CC1` (stereo not drawn) [Compound 140, 1-(4-(4-((2-fluoro-4-((2-(3-(trifluoromethyl)pyrrolidin-1-yl)pyridin-4-yl)oxy)phenyl)amino)-7H-pyrrolo[2,3-d]pyrimidin-5-yl)piperidin-1-yl)prop-2-en-1-one]: the GI50 with HCC827 cells was 200 to 1000 nM; in assay [1] it was 50 to 200 nM; in assay [2], 50 to 200 nM; in the assay on A431 cells, more than 1000 nM.
In the case of `C=CC(=O)N1CCC(c2c[nH]c3ncnc(Nc4ccc(Oc5ccnc(N6C[C@@H](C)O[C@@H](C)C6)c5)c(Cl)c4F)c23)CC1` [Compound 142, 1-(4-(4-((3-chloro-4-((2-((2S,6R)-2,6-dimethylmorpholino)pyridin-4-yl)oxy)-2-fluorophenyl)amino)-7H-pyrrolo[2,3-d]pyrimidin-5-yl)piperidin-1-yl)prop-2-en-1-one], the concentration for 50% growth inhibition (GI50) in the assay with HCC827 cells was more than 1000 nM; in assay [1], less than 50 nM; in assay [2] it was less than 50 nM; in the assay with A431 cells it was more than 1000 nM.
Turning to `C=CC(=O)N1CCC(c2c[nH]c3ncnc(Nc4ccc(Cl)c(Cl)c4F)c23)CC1` [Compound 143, 1-(4-(4-((3,4-dichloro-2-fluorophenyl)amino)-7H-pyrrolo[2,3-d]pyrimidin-5-yl)piperidin-1-yl)prop-2-en-1-one], the 50% growth inhibitory concentration (GI50) in the assay with HCC827 cells was less than 50 nM; in assay [1], less than 50 nM; in assay [2], less than 50 nM; in the assay with A431 cells it was more than 1000 nM.
`C=CC(=O)N1CCC(c2c[nH]c3ncnc(Nc4ccc(Oc5ccnc(N6CCC(F)(F)C6)c5)cc4F)c23)CC1` [Compound 145]: the GI50 with HCC827 cells was more than 1000 nM; in assay [1], 200 to 1000 nM; in assay [2], 200 to 1000 nM; in the assay on A431 cells, more than 1000 nM.
As to `C=CC(=O)N1CCC(c2c[nH]c3ncnc(Nc4ccc(Oc5ccnc(NC6CCOCC6)c5)cc4F)c23)CC1` [Compound 146, 1-(4-(4-((2-fluoro-4-((2-((tetrahydro-2H-pyran-4-yl)amino)pyridin-4-yl)oxy)phenyl)amino)-7H-pyrrolo[2,3-d]pyrimidin-5-yl)piperidin-1-yl)prop-2-en-1-one], the concentration for 50% growth inhibition (GI50) in the assay on HCC827 cells was more than 1000 nM; in assay [1], 200 to 1000 nM; in assay [2], 200 to 1000 nM; in the assay with A431 cells, more than 1000 nM.
For `C=CC(=O)N1CCC(c2c[nH]c3ncnc(Nc4ccc(Oc5ccnc(N6CCC[C@@H](OC)C6)c5)cc4F)c23)CC1` [Compound 147, (R)-1-(4-(4-((2-fluoro-4-((2-(3-methoxypiperidin-1-yl)pyridin-4-yl)oxy)phenyl)amino)-7H-pyrrolo[2,3-d]pyrimidin-5-yl)piperidin-1-yl)prop-2-en-1-one], the concentration for 50% growth inhibition (GI50) with HCC827 cells is more than 1000 nM; in assay [1] it was 50 to 200 nM; in assay [2] it was 50 to 200 nM; with A431 cells, more than 1000 nM.
With `C=CC(=O)N1CCC(c2c[nH]c3ncnc(Nc4ccc(Oc5ccnc(N6CC7C(C6)C7(F)F)c5)cc4F)c23)CC1` (stereo not drawn) [Compound 148, 1-(4-(4-((4-((2-(6,6-difluoro-3-azabicyclo[3.1.0]hexan-3-yl)pyridin-4-yl)oxy)-2-fluorophenyl)amino)-7H-pyrrolo[2,3-d]pyrimidin-5-yl)piperidin-1-yl)prop-2-en-1-one], the concentration for 50% growth inhibition (GI50) in the assay on HCC827 cells is more than 1000 nM; in assay [1] it was 50 to 200 nM; in assay [2], 200 to 1000 nM; in the assay with A431 cells, more than 1000 nM.
In the case of `C=CC(=O)N1CCC(c2c[nH]c3ncnc(Nc4ccc(Oc5nc(-c6cnc(OC)nc6)cs5)cc4F)c23)CC1` [Compound 149, 1-(4-(4-((2-fluoro-4-((4-(2-methoxypyrimidin-5-yl)thiazol-2-yl)oxy)phenyl)amino)-7H-pyrrolo[2,3-d]pyrimidin-5-yl)piperidin-1-yl)prop-2-en-1-one], the GI50 with HCC827 cells is more than 1000 nM; in assay [1], 50 to 200 nM; in assay [2], 50 to 200 nM; in the assay on A431 cells, more than 1000 nM.
As for `C=CC(=O)N1CCC(c2c[nH]c3ncnc(Nc4ccc(Oc5ccn(-c6cnc(C)c(F)c6)n5)cc4F)c23)CC1` [Compound 150, 1-(4-(4-((2-fluoro-4-((1-(5-fluoro-6-methylpyridin-3-yl)-1H-pyrazol-3-yl)oxy)phenyl)amino)-7H-pyrrolo[2,3-d]pyrimidin-5-yl)piperidin-1-yl)prop-2-en-1-one], the GI50 is 200 to 1000 nM with HCC827 cells, 50 to 200 nM in assay [1], 50 to 200 nM in assay [2] and more than 1000 nM with A431 cells.
With `C=CC(=O)N1CCC(c2c[nH]c3ncnc(Nc4ccc(OCc5nccs5)c(Cl)c4)c23)CC1` [Compound 153, 1-(4-(4-((3-chloro-4-(thiazol-2-ylmethoxy)phenyl)amino)-7H-pyrrolo[2,3-d]pyrimidin-5-yl)piperidin-1-yl)prop-2-en-1-one], the GI50 (in the assay with HCC827 cells; in assay [1]; in assay [2]; in the assay with A431 cells) was less than 50 nM throughout.
Consider `C=CC(=O)N1CCN(c2n[nH]c3ncnc(Nc4ccc(OCc5ccccn5)c(Cl)c4)c23)CC1` [Compound 163, 1-(4-(4-((3-chloro-4-(pyridin-2-ylmethoxy)phenyl)amino)-1H-pyrazolo[3,4-d]pyrimidin-3-yl)piperazin-1-yl)prop-2-en-1-one], for which the GI50 with HCC827 cells is less than 50 nM; in assay [1] it was less than 50 nM; in assay [2] it was less than 50 nM; in the assay with A431 cells, more than 1000 nM.
As for `C=CC(=O)N1CCC(c2n[nH]c3ncnc(Nc4ccc(O[C@H]5CCCN(S(=O)(=O)c6ccccc6)C5)cc4F)c23)CC1` [Compound 165, (S)-1-(4-(4-((2-fluoro-4-((1-(phenylsulfonyl)piperidin-3-yl)oxy)phenyl)amino)-1H-pyrazolo[3,4-d]pyrimidin-3-yl)piperidin-1-yl)prop-2-en-1-one], the 50% growth inhibitory concentration (GI50) in the assay with HCC827 cells is 200 to 1000 nM; in assay [1], 50 to 200 nM; in assay [2], 50 to 200 nM; with A431 cells, more than 1000 nM.
With `C=CC(=O)N1CC(Nc2n[nH]c3ncnc(Nc4ccc(OCc5ccccn5)c(Cl)c4)c23)C1` [Compound 168, 1-(3-((4-((3-chloro-4-(pyridin-2-ylmethoxy)phenyl)amino)-1H-pyrazolo[3,4-d]pyrimidin-3-yl)amino)azetidin-1-yl)prop-2-en-1-one], the GI50 is 200 to 1000 nM in the assay with HCC827 cells, more than 1000 nM in assay [1], more than 1000 nM in assay [2] and more than 1000 nM in the assay with A431 cells.
In the case of `C=CC(=O)N1CCC(Nc2n[nH]c3ncnc(Nc4ccc(OCc5ccccn5)c(Cl)c4)c23)CC1` [Compound 169, 1-(4-((4-((3-chloro-4-(pyridin-2-ylmethoxy)phenyl)amino)-1H-pyrazolo[3,4-d]pyrimidin-3-yl)amino)piperidin-1-yl)prop-2-en-1-one], the GI50 (with HCC827 cells; in assay [1]; in assay [2]; with A431 cells) was more than 1000 nM each time.
